Results taken from patent US20250368633A1, “AZEPINE FUSED RING COMPOUND AS RIPK1 INHIBITOR AND USE THEREOF” (ARTIVILA BIOPHARMA, priority 2022, published 2025).

Columns and labels:
U937 cells = assay: EC50 of necroptosis inhibition in U937 cells (TSZ-induced, CellTiter-Glo); assay type: cell-based; conditions: Homo sapiens, U-937; TSZ (hTNF-α, SM-164, Z-VAD-FMK) 20 hours; 10 concentration points; read-out: EC50 intervals of necroptosis inhibition in U937 cells
How it was run: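 U937 cells pretreated 15 min with compound (10-point, 1:3 series), then necroptosis induced by TSZ (hTNF-α, SM-164, Z-VAD-FMK) for 20 h at 37 °C. Viability measured as ATP by CellTiter-Glo luminescence; inhibition normalised to untreated and TSZ-only wells, EC50 from four-parameter fit.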

RIPK1 kinase = molecular target: T1, RIPK1 kinase (Homo sapiens, UniProt Q13546); assay: In vitro RIPK1 kinase activity IC50 assay (ADP-Glo); assay type: biochemical; conditions: ATP 10 μM; MBP substrate 100 μg/mL; 8 concentration points; read-out: IC50 range of compounds for RIPK1 kinase activity
T1 construct: purchased Promega VA7593
T1 sequence (Q13546 1-671): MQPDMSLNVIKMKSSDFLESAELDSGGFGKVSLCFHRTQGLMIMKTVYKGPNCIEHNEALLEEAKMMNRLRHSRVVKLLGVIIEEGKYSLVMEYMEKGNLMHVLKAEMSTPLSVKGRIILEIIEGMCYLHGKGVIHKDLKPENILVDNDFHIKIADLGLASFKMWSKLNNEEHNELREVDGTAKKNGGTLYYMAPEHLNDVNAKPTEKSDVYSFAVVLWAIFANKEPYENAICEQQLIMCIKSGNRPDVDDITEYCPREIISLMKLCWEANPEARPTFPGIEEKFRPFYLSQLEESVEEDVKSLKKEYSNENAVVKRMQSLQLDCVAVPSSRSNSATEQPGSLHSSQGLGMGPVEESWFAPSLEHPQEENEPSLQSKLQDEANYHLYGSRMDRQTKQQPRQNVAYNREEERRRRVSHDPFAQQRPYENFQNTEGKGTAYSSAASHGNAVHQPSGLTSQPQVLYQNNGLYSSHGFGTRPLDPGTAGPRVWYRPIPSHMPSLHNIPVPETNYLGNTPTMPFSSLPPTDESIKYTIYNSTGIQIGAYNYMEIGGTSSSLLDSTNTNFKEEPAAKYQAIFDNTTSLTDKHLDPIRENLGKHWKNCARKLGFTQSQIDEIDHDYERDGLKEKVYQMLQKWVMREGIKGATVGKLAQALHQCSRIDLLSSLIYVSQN
Procedure: RIPK1 kinase activity was assayed using the ADP-Glo assay and RIPK1 kinase reaction system (Promega, catalog number: VA7593). The RIPK1 kinase activity assay was performed according to the Promega kit manual.
The experimental method was briefly described as below. The concentration of RIPK1 kinase in the RIPK1 kinase reaction system was determined by kinase titration and S/B10. The compound was diluted with 1× kinase buffer D (1% DMSO), 1 μL of 1 mM compound DMSO stock solution was added to 19 μL 1× kinase buffer D, and the compound was serially diluted with 1× kinase buffer D at a ratio of 1:5, for a total of 8 concentration points, and a control with the same DMSO volume was set. RIPK1 kinase was diluted with 1× kinase buffer D. 2.5×ATP/substrate was diluted with 1× kinase buffer D. The final concentration of ATP in the kinase reaction system was 10 μM. The final concentration of MBP substrate was 100 μg/mL. 1 μL of diluted compound and 2 μL of diluted RIPK1 kinase were mixed, incubated at room temperature for 15 minutes, 2 μL of 2.5×ATP/substrate was added, mixed, and incubated at room temperature for 1 hour. 5 μL ADP-Glo reagent was added to each well and incubated at room temperature for 1 hour. 10 μL ADP detection reagent was added to each well and incubated at room temperature for another 0.5-1 hour. The chemiluminescent signal was read with a microplate reader and the kinase activity inhibition rate was calculated. IC50 was obtained by fitting the nonlinear regression curve log [inhibitor] vs. response-variable slope (four parameters) in GraphPad Prism.

Q: `CN1C(=O)[C@@H](NC(=O)C(=O)NCCc2cc(F)cc(F)c2)COc2ccc(C#CCCO)cc21` [Example 36, (S)—N^1-(3,5-difluorophenethyl)-N^2-(7-(4-hydroxybut-1-yn-1-yl)-5-methyl-4-oxo-2,3,4,5-tetrahydrobenzo[b][1,4]oxazepin-3-yl)oxalamide] was tested. Which EC50 (U937 cells) did it give?
A: < 0.1 µM

Q: And the IC50 (RIPK1 kinase)?
A: < 0.1 µM

Q: `CN1C(=O)[C@@H](NC(=O)C(=O)NCc2cccc(F)c2)COc2ccc(C#CCCO)cc21` [Example 39, (S)—N^1-(3-fluorobenzyl)-N^2-(7-(4-hydroxybut-1-yn-1-yl)-5-methyl-4-oxo-2,3,4,5-tetrahydrobenzo[b][1,4]oxazepin-3-yl)oxalamide] was tested. Which EC50 (U937 cells) did it give?
A: 0.1 to 0.5 µM

Q: And the IC50 (RIPK1 kinase)?
A: < 0.1 µM

Q: Which results are given for `CN1C(=O)[C@@H](NC(=O)C(=O)NCc2ccc(F)cc2)COc2ccc(C#CCCO)cc21` [Example 40, (S)—N^1-(4-fluorobenzyl)-N^2-(7-(4-hydroxybut-1-yn-1-yl)-5-methyl-4-oxo-2,3,4,5-tetrahydrobenzo[b][1,4]oxazepin-3-yl)oxalamide]?
A: EC50 (U937 cells): < 0.1 µM; IC50 (RIPK1 kinase): < 0.1 µM

Q: Which EC50 (U937 cells) does the source give for `CN1C(=O)[C@@H](NC(=O)C(=O)NCCc2cccc(F)c2)COc2ccc(C#CC(C)(C)O)cc21` [Example 42, (S)—N^1-(3-fluorophenethyl)-N^2-(7-(3-hydroxy-3-methylbut-1-yn-1-yl)-5-methyl-4-oxo-2,3,4,5-tetrahydrobenzo[b][1,4]oxazepin-3-yl)oxalamide] here?
A: < 0.1 µM

Q: And the IC50 (RIPK1 kinase)?
A: < 0.1 µM

Q: Which EC50 (U937 cells) does the source give for `CN1C(=O)[C@@H](NC(=O)C(=O)NCCc2ccccc2)COc2ccc(C#CC3(O)COC3)cc21` [Example 43, (S)—N^1-(7-((3-hydroxyoxetan-3-yl)ethynyl)-5-methyl-4-oxo-2,3,4,5-tetrahydrobenzo[b][1,4]oxazepin-3-yl)-N^2-phenethyloxalamide] here?
A: < 0.1 µM

Q: And the IC50 (RIPK1 kinase)?
A: < 0.1 µM

Q: What does the source list for `CN1C(=O)[C@@H](NC(=O)C(=O)NCCc2ccccc2)COc2ccc(C#CC3(O)CCCCC3)cc21` [Example 44, (S)—N^1-(7-((1-hydroxycyclohexyl)ethynyl)-5-methyl-4-oxo-2,3,4,5-tetrahydrobenzo[b][1,4]oxazepin-3-yl)-N^2-phenethyloxalamide]?
A: EC50 (U937 cells): < 0.1 µM; IC50 (RIPK1 kinase): < 0.1 µM

Q: How did the EC50 (U937 cells) turn out when `C/C(C#Cc1ccc2c(c1)N(C)C(=O)[C@@H](NC(=O)C(=O)NCCc1ccccc1)CO2)=C/CO` [Example 45, (S,Z)-N^1-(7-(5-hydroxy-3-methylpent-3-en-1-yn-1-yl)-5-methyl-4-oxo-2,3,4,5-tetrahydrobenzo[b][1,4]oxazepin-3-yl)-N^2-phenethyloxalamide] was run?
A: < 0.1 µM

Q: And the IC50 (RIPK1 kinase)?
A: < 0.1 µM

Q: What does the source list for `CN1C(=O)[C@@H](NC(=O)C(=O)NCCc2ccccc2)COc2ccc(C#CCN3CCC(O)C3)cc21` (stereo partly drawn) [Example 46, N^1-((3S)-7-(3-(3-hydroxypyrrolidin-1-yl)prop-1-yn-1-yl)-5-methyl-4-oxo-2,3,4,5-tetrahydrobenzo[b][1,4]oxazepin-3-yl)-N^2-phenethyloxalamide]?
A: EC50 (U937 cells): < 0.1 µM; IC50 (RIPK1 kinase): < 0.1 µM

Q: Which EC50 (U937 cells) does the source give for `CN1C(=O)[C@@H](NC(=O)C(=O)NCCc2ccccc2)COc2ccc(C#CCN3CCC(=O)CC3)cc21` [Example 47, (S)—N^1-(5-methyl-4-oxo-7-(3-(4-oxopiperidin-1-yl)prop-1-yn-1-yl)-2,3,4,5-tetrahydrobenzo[b][1,4]oxazepin-3-yl)-N^2-phenethyloxalamide] here?
A: < 0.1 µM

Q: And the IC50 (RIPK1 kinase)?
A: < 0.1 µM

Q: For `CN1C(=O)[C@@H](NC(=O)C(=O)NCCc2ccccc2)COc2ccc(C#CCN3CCOCC3)cc21` [Example 48, (S)—N^1-(5-methyl-7-(3-morpholinoprop-1-yn-1-yl)-4-oxo-2,3,4,5-tetrahydrobenzo[b][1,4]oxazepin-3-yl)-N^2-phenethyloxalamide], which EC50 (U937 cells) is on record?
A: < 0.1 µM

Q: What about the IC50 (RIPK1 kinase) of the same molecule?
A: < 0.1 µM

Q: How did the EC50 (U937 cells) turn out when `CN1C(=O)[C@@H](NC(=O)C(=O)NCCc2ccccc2)COc2ccc(C#CCCN)cc21` [Example 50, (S)—N^1-(7-(4-aminobut-1-yn-1-yl)-5-methyl-4-oxo-2,3,4,5-tetrahydrobenzo[b][1,4]oxazepin-3-yl)-N^2-phenethyloxalamide] was run?
A: < 0.1 µM

Q: What about the IC50 (RIPK1 kinase) of the same molecule?
A: < 0.1 µM

Q: How did the EC50 (U937 cells) turn out when `CN1C(=O)[C@@H](NC(=O)C(=O)NCCc2ccccc2)COc2ccc(C#CCCNS(C)(=O)=O)cc21` [Example 51, (S)—N^1-(5-methyl-7-(4-(methylsulfonamido)but-1-yn-1-yl)-4-oxo-2,3,4,5-tetrahydrobenzo[b][1,4]oxazepin-3-yl)-N^2-phenethyloxalamide] was run?
A: < 0.1 µM

Q: And the IC50 (RIPK1 kinase)?
A: < 0.1 µM

Q: With `COCC#Cc1ccc2c(c1)N(C)C(=O)[C@@H](NC(=O)C(=O)NCCc1ccccc1)CO2` [Example 52, (S)—N^1-(7-(3-methoxyprop-1-yn-1-yl)-5-methyl-4-oxo-2,3,4,5-tetrahydrobenzo[b][1,4]oxazepin-3-yl)-N^2-phenethyloxalamide] as the molecule, how does the EC50 (U937 cells) read?
A: < 0.1 µM

Q: What about the IC50 (RIPK1 kinase) of the same molecule?
A: < 0.1 µM

Q: What does the source list for `CN1C(=O)C(NC(=O)C(=O)NCCc2ccccc2)CCc2ccc(Br)cc21` (centres unmarked) [Example 61, N^1-(8-bromo-1-methyl-2-oxo-2,3,4,5-tetrahydro-1H-benzo[b]azepin-3-yl)-N^2-phenethyloxalamide]?
A: EC50 (U937 cells): < 0.1 µM; IC50 (RIPK1 kinase): < 0.1 µM

Q: Which results are given for `CN1C(=O)C(NC(=O)C(=O)NCCc2ccccc2)CCc2ccc(C#CC3CC3)cc21` (centres unmarked) [Example 62, N^1-(8-(cyclopropylethynyl)-1-methyl-2-oxo-2,3,4,5-tetrahydro-1H-benzo[b]azepin-3-yl)-N^2-phenethyloxalamide]?
A: EC50 (U937 cells): < 0.1 µM; IC50 (RIPK1 kinase): < 0.1 µM

Q: How did the EC50 (U937 cells) turn out when `CN1C(=O)C(NC(=O)C(=O)NCCc2ccccc2)CCc2ccc(C#CCCO)cc21` (centres unmarked) [Example 65, N^1-(8-(4-hydroxybut-1-yn-1-yl)-1-methyl-2-oxo-2,3,4,5-tetrahydro-1H-benzo[b]azepin-3-yl)-N^2-phenethyloxalamide] was run?
A: < 0.1 µM

Q: What about the IC50 (RIPK1 kinase) of the same molecule?
A: < 0.1 µM

Q: What does the source list for `CN1C(=O)C(NC(=O)C(=O)NCCc2ccccc2)CCc2ccc(C#CC3CCNCC3)cc21` (centres unmarked) [Example 66, N^1-(1-methyl-2-oxo-8-(piperidin-4-ylethynyl)-2,3,4,5-tetrahydro-1H-benzo[b]azepin-3-yl)-N^2-phenethyloxalamide]?
A: EC50 (U937 cells): < 0.1 µM; IC50 (RIPK1 kinase): < 0.1 µM

Q: What does the source list for `CN1C(=O)[C@@H](NC(=O)C(=O)NCCc2ccccc2)COc2ccc(C#CC3CCN(CC#N)CC3)cc21` [Example 74, (S)—N^1-(7-((1-(cyanomethyl)piperidin-4-yl)ethynyl)-5-methyl-4-oxo-2,3,4,5-tetrahydrobenzo[b][1, 4]oxazepin-3-yl)-N^2-phenethyloxalamide]?
A: EC50 (U937 cells): < 0.1 µM; IC50 (RIPK1 kinase): < 0.1 µM

Q: How did the EC50 (U937 cells) turn out when `CN1C(=O)[C@@H](NC(=O)C(=O)NCCc2ccccc2)COc2ccc(C#CC3COC3)cc21` [Example 76, (S)—N^1-(5-methyl-7-(oxetan-3-ylethynyl)-4-oxo-2,3,4,5-tetrahydrobenzo[b][1,4]oxazepin-3-yl)-N^2-phenethyloxalamide] was run?
A: < 0.1 µM

Q: And the IC50 (RIPK1 kinase)?
A: < 0.1 µM

Q: How did the EC50 (U937 cells) turn out when `CN1C(=O)[C@H](NC(=O)C(=O)NCCc2ccccc2)COc2ccc(C#CC3(O)COC3)cc21` [Example 77, (R)—N^1-(7-((3-hydroxyoxetan-3-yl)ethynyl)-5-methyl-4-oxo-2,3,4,5-tetrahydrobenzo[b][1,4]oxazepin-3-yl)-N^2-phenethyloxalamide] was run?
A: < 0.1 µM

Q: What about the IC50 (RIPK1 kinase) of the same molecule?
A: < 0.1 µM

Q: Which results are given for `COC1(C#Cc2ccc3c(c2)N(C)C(=O)[C@@H](NC(=O)C(=O)NCCc2ccccc2)CO3)COC1` [Example 78, (S)—N^1-(7-((3-methoxyoxetan-3-yl)ethynyl)-5-methyl-4-oxo-2,3,4,5-tetrahydrobenzo[b][1,4]oxazepin-3-yl)-N^2-phenethyloxalamide]?
A: EC50 (U937 cells): < 0.1 µM; IC50 (RIPK1 kinase): < 0.1 µM

Q: For `CN1C(=O)[C@@H](NC(=O)C(=O)NCCc2ccccc2)COc2ccc(C#CCC3(O)COC3)cc21` [Example 79, (S)—N^1-(7-(3-(3-hydroxyoxetan-3-yl)prop-1-yn-1-yl)-5-methyl-4-oxo-2,3,4,5-tetrahydrobenzo[b][1,4]oxazepin-3-yl)-N^2-phenethyloxalamide], which EC50 (U937 cells) is on record?
A: < 0.1 µM

Q: What about the IC50 (RIPK1 kinase) of the same molecule?
A: < 0.1 µM
